# Test results reported in ChEMBL document CHEMBL1201862, “PubChem BioAssay data set” (2004).
# The source made the active and inactive calls.
# Legend:
# [1] = target: Serine/threonine-protein phosphatase PP1-alpha catalytic subunit (Homo sapiens, UniProt P62136); assay: PP1 phosphatase inhibitors, dose response, biochemical, fluorescence (AID 2394)
# [2] = target: T1, Sentrin-specific protease 7 (Homo sapiens, UniProt Q9BQF6); format: functional;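 also: Luminescence-based dose-response confirmation of ultra-high-throughput screening hits, measuring inhibition of SENP7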
# T1 sequence (Q9BQF6 whole entry): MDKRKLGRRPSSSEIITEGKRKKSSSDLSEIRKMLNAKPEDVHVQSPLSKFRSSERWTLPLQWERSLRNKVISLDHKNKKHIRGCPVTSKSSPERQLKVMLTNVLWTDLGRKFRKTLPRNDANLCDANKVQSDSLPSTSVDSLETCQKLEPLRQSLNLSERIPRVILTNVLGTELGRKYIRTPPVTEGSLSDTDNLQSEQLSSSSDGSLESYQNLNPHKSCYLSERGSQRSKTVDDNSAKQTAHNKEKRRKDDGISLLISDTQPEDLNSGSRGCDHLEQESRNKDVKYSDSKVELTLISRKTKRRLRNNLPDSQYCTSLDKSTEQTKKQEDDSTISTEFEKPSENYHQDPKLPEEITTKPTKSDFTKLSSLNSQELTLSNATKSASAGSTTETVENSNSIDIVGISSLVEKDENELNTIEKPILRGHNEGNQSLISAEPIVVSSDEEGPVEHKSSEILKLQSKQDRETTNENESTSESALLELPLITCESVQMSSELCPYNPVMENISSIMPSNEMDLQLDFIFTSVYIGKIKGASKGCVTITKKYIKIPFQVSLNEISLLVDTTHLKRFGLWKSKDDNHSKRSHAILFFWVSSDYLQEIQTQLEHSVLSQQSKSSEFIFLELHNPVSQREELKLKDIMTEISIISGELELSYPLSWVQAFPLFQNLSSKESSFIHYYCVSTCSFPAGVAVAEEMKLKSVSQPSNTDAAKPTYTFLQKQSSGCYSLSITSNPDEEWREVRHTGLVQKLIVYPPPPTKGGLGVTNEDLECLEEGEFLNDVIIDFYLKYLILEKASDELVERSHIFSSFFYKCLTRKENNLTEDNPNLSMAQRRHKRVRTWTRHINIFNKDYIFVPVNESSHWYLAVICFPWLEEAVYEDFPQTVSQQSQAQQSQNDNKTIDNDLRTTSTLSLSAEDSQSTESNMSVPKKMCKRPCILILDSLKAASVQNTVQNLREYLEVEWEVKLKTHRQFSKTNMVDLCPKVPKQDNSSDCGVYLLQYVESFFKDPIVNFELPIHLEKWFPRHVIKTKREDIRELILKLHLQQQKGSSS
# [3] = target: Protein kinase C theta type (Homo sapiens, UniProt Q04759); assay: Navigating the Kinome. Panel member name: PRKCQ; format: functional
# [4] = target: Tyrosine-protein kinase JAK2 (Homo sapiens, UniProt O60674); format: functional;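 also: JAK2 tested as one member of a kinase panel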
# [5] = target: Serine/threonine-protein kinase pim-1 (Homo sapiens, UniProt P11309); format: functional
# [6] = target: Fibroblast growth factor receptor 1 (Homo sapiens, UniProt P11362); format: functional
# LIM domain kinase 1 = LIM domain kinase 1 (Homo sapiens, UniProt P53667); assay: Navigating the Kinome. Panel member name: LIMK1; format: functional
# [7] = target: Platelet-derived growth factor receptor beta (Homo sapiens, UniProt P09619); format: functional;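 also: value comes from a kinome panel, with PDGFRB tested as one panel member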
# [8] = target: Insulin-like growth factor 1 receptor (Homo sapiens, UniProt P08069); assay: Navigating the Kinome. Panel member name: IGF1R; format: functional
# Aurora kinase B = Aurora kinase B (Homo sapiens, UniProt Q96GD4); format: functional
# [9] = target: Tyrosine-protein kinase Fyn (Homo sapiens, UniProt P06241); format: functional
# [10] = target: Vascular endothelial growth factor receptor 1 (Homo sapiens, UniProt P17948); format: functional;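 also: measured within a kinome-wide profiling panel, FLT1 as the panel member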
# [11] = target: Cyclin-dependent kinase 9 (Homo sapiens, UniProt P50750); format: functional;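 also: value from the CDK9 entry of a kinome-spanning kinase panel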
# [12] = C. albicans growth with fluconazole, confirmation, fluorescence, retest (AID 2467); format: functional, cell-based
# [13] = target: Dual specificity protein phosphatase 3 (Homo sapiens, UniProt P51452); assay: VHR1 phosphatase inhibitors, biochemical (AID 1878)
# HeLa = assay: HeLa cell cytotoxicity, dose response, cytotoxicity control, 24 h, cherry-picked samples (AID 504726); format: functional, cell-based; settings: Homo sapiens;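 also: potency for cytotoxicity as loss of luminescence signal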
# Chain of Vascular endothelial growth factor receptor 1 (P17948 whole entry): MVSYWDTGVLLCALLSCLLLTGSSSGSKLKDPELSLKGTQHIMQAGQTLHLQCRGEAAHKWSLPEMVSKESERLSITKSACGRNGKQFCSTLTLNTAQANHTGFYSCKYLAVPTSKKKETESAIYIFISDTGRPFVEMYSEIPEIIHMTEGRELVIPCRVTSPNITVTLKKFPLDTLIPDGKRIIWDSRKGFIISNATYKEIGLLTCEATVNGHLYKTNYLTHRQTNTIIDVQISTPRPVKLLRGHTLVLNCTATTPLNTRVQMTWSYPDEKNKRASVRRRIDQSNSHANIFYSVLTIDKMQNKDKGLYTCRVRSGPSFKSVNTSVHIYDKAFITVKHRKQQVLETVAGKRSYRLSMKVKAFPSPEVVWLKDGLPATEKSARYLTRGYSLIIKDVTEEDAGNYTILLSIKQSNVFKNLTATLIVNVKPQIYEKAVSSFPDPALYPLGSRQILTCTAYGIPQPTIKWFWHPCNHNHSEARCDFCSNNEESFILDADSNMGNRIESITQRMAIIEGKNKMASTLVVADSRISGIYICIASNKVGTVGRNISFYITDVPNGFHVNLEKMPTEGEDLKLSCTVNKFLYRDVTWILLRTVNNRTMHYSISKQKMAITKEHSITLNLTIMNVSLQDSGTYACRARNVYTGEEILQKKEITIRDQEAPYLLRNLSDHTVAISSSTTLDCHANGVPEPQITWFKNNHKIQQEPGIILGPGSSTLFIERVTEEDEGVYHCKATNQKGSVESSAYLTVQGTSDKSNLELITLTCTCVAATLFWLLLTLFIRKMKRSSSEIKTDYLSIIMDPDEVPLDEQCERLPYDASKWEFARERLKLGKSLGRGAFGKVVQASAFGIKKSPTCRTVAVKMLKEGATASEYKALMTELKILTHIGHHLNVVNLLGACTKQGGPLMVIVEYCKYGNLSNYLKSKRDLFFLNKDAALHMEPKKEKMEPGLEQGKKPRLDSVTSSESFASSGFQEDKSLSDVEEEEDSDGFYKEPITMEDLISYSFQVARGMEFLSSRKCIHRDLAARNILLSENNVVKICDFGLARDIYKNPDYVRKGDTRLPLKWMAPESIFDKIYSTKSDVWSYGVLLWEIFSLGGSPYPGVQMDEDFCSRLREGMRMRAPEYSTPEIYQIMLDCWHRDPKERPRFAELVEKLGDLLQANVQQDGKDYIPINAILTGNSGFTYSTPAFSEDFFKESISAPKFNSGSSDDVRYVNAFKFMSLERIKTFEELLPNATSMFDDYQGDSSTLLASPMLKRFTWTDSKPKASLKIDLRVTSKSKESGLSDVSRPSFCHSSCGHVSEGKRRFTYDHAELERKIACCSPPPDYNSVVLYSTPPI
# Chain of Tyrosine-protein kinase JAK2 (O60674 whole entry): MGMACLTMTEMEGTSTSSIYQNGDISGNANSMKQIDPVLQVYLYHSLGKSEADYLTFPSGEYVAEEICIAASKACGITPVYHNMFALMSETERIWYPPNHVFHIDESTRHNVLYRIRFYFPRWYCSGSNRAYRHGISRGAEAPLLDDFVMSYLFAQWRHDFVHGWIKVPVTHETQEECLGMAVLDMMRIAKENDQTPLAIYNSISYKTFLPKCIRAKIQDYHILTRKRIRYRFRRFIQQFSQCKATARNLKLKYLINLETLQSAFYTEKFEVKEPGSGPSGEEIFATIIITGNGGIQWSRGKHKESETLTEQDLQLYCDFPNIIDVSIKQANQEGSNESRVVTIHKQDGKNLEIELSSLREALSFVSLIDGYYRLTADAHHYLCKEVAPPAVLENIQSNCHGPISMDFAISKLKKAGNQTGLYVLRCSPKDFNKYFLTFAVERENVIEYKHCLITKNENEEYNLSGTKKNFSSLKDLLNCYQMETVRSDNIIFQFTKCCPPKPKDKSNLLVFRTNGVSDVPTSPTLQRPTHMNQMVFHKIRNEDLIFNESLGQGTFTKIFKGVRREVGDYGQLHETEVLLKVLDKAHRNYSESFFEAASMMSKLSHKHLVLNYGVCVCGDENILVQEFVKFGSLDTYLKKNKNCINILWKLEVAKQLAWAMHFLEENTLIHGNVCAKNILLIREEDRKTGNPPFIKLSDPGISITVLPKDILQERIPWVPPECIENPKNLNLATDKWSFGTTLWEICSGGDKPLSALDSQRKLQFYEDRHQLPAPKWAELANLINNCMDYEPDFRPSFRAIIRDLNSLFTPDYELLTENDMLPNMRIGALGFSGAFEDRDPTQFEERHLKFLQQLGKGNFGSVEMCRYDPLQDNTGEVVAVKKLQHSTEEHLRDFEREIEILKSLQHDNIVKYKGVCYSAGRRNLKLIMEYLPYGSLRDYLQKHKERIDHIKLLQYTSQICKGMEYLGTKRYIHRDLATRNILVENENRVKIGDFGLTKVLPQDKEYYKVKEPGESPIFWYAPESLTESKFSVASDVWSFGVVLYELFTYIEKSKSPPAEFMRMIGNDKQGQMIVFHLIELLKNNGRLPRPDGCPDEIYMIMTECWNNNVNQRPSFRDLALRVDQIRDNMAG
# Chain of Dual specificity protein phosphatase 3 (P51452 whole entry): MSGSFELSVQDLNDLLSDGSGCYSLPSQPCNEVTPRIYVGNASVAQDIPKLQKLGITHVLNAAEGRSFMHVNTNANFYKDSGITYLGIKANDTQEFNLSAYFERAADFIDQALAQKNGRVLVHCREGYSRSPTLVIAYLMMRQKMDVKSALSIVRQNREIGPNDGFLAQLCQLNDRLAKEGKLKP
# Chain of Serine/threonine-protein kinase pim-1 (P11309 whole entry): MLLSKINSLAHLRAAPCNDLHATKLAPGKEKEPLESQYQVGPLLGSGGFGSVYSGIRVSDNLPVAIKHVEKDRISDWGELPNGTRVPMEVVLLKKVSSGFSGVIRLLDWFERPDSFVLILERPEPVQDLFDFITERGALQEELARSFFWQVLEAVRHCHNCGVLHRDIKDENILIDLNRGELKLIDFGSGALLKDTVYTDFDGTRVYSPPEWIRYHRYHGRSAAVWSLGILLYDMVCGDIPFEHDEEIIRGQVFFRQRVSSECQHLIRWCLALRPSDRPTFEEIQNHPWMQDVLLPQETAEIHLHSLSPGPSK
# Chain of Serine/threonine-protein phosphatase PP1-alpha catalytic subunit (P62136 whole entry): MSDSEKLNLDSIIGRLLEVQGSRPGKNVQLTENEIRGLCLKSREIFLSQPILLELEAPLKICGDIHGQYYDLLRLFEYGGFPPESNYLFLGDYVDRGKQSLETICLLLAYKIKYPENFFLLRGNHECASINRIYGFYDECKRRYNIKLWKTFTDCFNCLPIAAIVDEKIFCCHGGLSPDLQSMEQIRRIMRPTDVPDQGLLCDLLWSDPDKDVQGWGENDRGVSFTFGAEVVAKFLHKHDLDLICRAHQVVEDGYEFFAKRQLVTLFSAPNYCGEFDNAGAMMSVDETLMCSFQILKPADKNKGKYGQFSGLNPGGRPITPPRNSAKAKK
# Chain of LIM domain kinase 1 (P53667 whole entry, the tested form may be a part): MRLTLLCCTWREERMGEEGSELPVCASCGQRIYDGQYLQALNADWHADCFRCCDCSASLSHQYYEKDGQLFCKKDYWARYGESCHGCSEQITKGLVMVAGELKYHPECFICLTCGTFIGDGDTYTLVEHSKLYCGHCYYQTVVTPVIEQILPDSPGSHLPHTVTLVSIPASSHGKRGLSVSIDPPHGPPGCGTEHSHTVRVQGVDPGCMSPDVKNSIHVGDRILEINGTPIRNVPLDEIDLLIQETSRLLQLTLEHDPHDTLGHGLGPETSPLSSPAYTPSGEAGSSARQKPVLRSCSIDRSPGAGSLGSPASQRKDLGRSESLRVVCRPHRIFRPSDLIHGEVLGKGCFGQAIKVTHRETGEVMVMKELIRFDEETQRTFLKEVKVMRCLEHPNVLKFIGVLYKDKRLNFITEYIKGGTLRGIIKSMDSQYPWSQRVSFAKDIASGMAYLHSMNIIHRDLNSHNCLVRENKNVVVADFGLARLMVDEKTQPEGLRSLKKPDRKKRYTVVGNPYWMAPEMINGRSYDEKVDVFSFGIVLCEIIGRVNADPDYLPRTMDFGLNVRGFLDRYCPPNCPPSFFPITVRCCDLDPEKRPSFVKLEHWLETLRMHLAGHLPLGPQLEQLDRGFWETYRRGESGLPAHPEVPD
# Chain of Tyrosine-protein kinase Fyn (P06241 whole entry): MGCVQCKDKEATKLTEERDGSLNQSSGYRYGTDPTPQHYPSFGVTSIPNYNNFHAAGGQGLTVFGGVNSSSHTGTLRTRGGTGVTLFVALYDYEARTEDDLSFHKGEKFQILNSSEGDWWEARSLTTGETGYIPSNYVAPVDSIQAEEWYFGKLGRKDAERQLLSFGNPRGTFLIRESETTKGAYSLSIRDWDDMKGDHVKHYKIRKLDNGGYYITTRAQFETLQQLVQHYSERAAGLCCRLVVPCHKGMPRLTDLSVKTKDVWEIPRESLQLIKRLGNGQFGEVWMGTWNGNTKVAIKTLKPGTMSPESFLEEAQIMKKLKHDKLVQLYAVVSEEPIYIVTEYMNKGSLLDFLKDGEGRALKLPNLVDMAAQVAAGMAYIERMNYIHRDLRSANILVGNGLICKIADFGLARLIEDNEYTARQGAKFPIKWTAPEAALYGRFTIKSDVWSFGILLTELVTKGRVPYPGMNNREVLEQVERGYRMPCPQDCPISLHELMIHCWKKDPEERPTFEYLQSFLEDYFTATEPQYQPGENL
# Chain of Cyclin-dependent kinase 9 (P50750 whole entry): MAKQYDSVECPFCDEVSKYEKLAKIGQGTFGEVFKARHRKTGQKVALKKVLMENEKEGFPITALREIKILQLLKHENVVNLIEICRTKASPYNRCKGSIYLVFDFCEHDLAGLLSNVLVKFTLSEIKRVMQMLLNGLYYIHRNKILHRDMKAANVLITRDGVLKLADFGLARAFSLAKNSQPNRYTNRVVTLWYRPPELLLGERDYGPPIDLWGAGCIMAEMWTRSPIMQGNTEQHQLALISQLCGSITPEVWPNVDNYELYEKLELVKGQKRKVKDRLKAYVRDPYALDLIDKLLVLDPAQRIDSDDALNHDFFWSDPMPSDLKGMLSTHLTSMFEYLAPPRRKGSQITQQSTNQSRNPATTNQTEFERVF
smiles,measurement,setting,value
O=C(NNc1cc(N2CCCC2)nc(N2CCCC2)n1)c1ccc([N+](=O)[O-])cc1,IC50,[1],> 67 µM (not active)
same,IC50,[2],2.55 µM (active)
O=C(Cc1cccs1)Nc1nc2ccccc2s1,Ki,[3],1.58 µM (active)
same,Ki,[4],> 2.51 µM (inactive)
same,Ki,[5],794 nM (active)
same,Ki,[6],631 nM (active)
same,Ki,LIM domain kinase 1,158 nM (active)
same,Ki,[7],> 2 µM (inactive)
same,Ki,[8],> 2.51 µM (inactive)
same,Ki,Aurora kinase B,1 µM (active)
same,Ki,[9],5.01 µM (active)
same,Ki,[10],3.16 µM (active)
same,Ki,[11],251 nM (active)
O=S(=O)(O)c1cccc2c(N=Nc3ccc(O)c4ncccc34)cccc12,EC50,[12],> 38 µM (not active)
same,IC50,[13],1.7 µM (active)
same,AC50,HeLa,206 µM (active)
